{"source": "patent US11324794B2", "about": "“Composition for preventing, improving, or treating decrease in intestinal function, comprising bamboo shoot hydrolyzate or fermented bamboo shoot as active ingredient” (OZLDNF CO., LTD., priority 2017, dated 2022)", "key": {"[1]": {"tested_on": "Sprague Dawley (SD) rat", "test": "Digestive tract migration rate (activated charcoal)", "type": "in vivo", "details": "oral, 7th day, 30 minutes after charcoal", "description": "(§1) Laboratory […] under the following conditions were used. • Genealogy and Species: Sprague Dawley (SD) rat • Source: Samtaco Co., Ltd. • Number of purchased animals and gender: Male • Age (week) of purchased animals and weight range: 6 weeks, 190 to 220 • Number of animals (male) at the time of administration: 49 • Age (week) of animals and weight range at the time of administration: 7 weeks, 210 to 240 g.\n(§2) After one week of acclimation, the test substance, that is, ioperamide as a conventional constipation inductive material, bisacodyl as a conventional constipation therapeutic agent, the enzyme-degraded products in Examples 1 and 2 (fermented for 24 hours) and the fermented products in Examples 3 and 4, respectively, were repeatedly administered in the stomach once a day for a total of 7 days by means of a syringe for oral administration (Sonde). […]\nAfter fasting a laboratory animal for 15 hours on the 7th day of constipation induction, a 0.5 ml suspension including 10% Arabic gum (Sigma, USA) and 5% activated charcoal (Sigma, USA) was orally administered to the animal. 30 minutes later, the animal was sacrificed, the gastrointestinal tract was removed, and a migration rate was calculated by dividing a length wherein green colored feces are excreted among the intestinal tract length between the duodenum and the rectum, with passage of time. […]"}, "[2]": {"tested_on": "Sprague Dawley (SD) rat", "test": "Counting number of intestinal stools remaining in the colon tract", "type": "in vivo", "details": "oral, 8th day", "description": "as §1\n(§3) After one week of acclimation, the test substance, that is, ioperamide as a conventional constipation inductive material, bisacodyl as a conventional constipation therapeutic agent, the enzyme-degraded products in Examples 1 and 2 (fermented for 24 hours) and the fermented products in Examples 3 and 4, respectively, were repeatedly administered in the stomach once a day for a total of 7 days by means of a syringe for oral administration (Sonde). Except for the control group (Con), all test groups were subjected to administration of loperamide (4 mg/kg) in order to induce constipation.\nThe number of intestinal stools was counted by scarifying a laboratory rat on the 8th day after administration of loperamide and observing the number of feces remaining in the colon tract.\nOn the last day of the experiment, all laboratory animals were sacrificed and the number of feces remaining in the rectal region was measured."}, "[3]": {"tested_on": "Sprague Dawley (SD) rat", "test": "Measurement of number of feces and feces weight change in loperamide-induced constipation", "type": "in vivo", "details": "oral", "description": "as §1, §3\nThe feces were sampled daily and the number and weight of the feces were measured. Further, the sampled feces were dried in a drier at 70° C. for 24 hours."}, "[4]": {"test": "Measurement of body weight, dietary intake and amount of drinking water", "type": "in vivo, Sprague Dawley (SD) rat", "details": "Lop group: loperamide 4 mg/kg alone, oral", "description": "as §1, §2\nThe body weight was measured twice a week on the day before the experiment when group separation was conducted, and twice a week on the day after administration, respectively. The experimental dietary intake was measured by feeding 100 g of test diet at a predetermined time and, after 24 hours, the remaining amount was measured to determine the dietary intake. The drinking water was fed by 250 ml at a predetermined time and the remaining water was measured on the next day to determine a total amount of the water intake. […]"}, "[5]": {"tested_on": "Sprague Dawley (SD) rat", "test": "Measurement of water content of feces", "type": "in vivo", "details": "Bis group: loperamide 4 mg/kg + bisacodyl 4 mg/kg, oral; comparison group 29.98±1.89%", "description": "as §1, §3\nThe feces were sampled daily and the number and weight of the feces were measured. Further, the sampled feces were dried in a drier at 70° C. for 24 hours. A percentage of water content was calculated by subtracting the weight after drying from the weight before drying to estimate the water content and converting the estimated value as the percentage to a total weight of the feces."}, "[6]": {"details": "Bis group: loperamide 4 mg/kg + bisacodyl 4 mg/kg"}}}
{"smiles": "CN(C)C(=O)C(CCN1CCC(O)(c2ccc(Cl)cc2)CC1)(c1ccccc1)c1ccccc1", "note": "[Loperamide]", "values": [{"measurement": "Digestive tract migration rate", "setting": "[1]; Lop group: loperamide 4 mg/kg alone, Con group 68.63±2.72%", "value": "42.10±3.49", "unit": "%"}, {"measurement": "Number of feces remaining in the intestinal tract", "setting": "[2]; Lop group: loperamide 4 mg/kg alone, Con group 1.86±0.55", "value": "5.66±0.63"}, {"measurement": "Number of feces", "setting": "[3]; Lop group: loperamide 4 mg/kg alone, 7th day after induction of constipation, Con group 55.14±2.06", "value": "44.40±2.54"}, {"measurement": "Weight of feces", "setting": "[3]; Lop group: loperamide 4 mg/kg alone, Con group 7.52±0.30 g", "value": "5.02 ± 0.36", "unit": "g"}, {"measurement": "Body weight change (g) (B) − (A)", "setting": "[4]; 7 days", "value": "73.45 ± 5.48", "unit": "g"}, {"measurement": "Body weight (g) After test (B)", "setting": "[4]; once a day for 7 days", "value": "278.58 ± 6.82", "unit": "g"}]}
{"smiles": "CC(=O)Oc1ccc(C(c2ccc(OC(C)=O)cc2)c2ccccn2)cc1", "note": "[Bisacodyl]", "values": [{"measurement": "Digestive tract migration rate", "setting": "[1]; [6]", "value": "65.02±2.86", "unit": "%"}, {"measurement": "Number of feces remaining in the intestinal tract", "setting": "[2]; [6]", "value": "3.62±0.86"}, {"measurement": "Weight of feces", "setting": "[3]; [6]", "value": "6.82 ± 0.35", "unit": "g"}, {"measurement": "Water content of the feces", "setting": "[5]", "value": "44.02±1.34", "unit": "%"}]}
